Patent US9550742B2, “11-OXO-10,11-dihydrodibenzo[B,F][1,4]thiazepine S-oxide derivatives and their use as dopamine D2 receptor antagonists” (The United States of America, as Represented by the …, priority 2013, dated 2017)
Read-outs that look alike come from different tables or passages of the source.

Tests used:
[1] = molecular target: KOR (Homo sapiens, UniProt P41145); assay: Affinity profile panel: KOR; settings: inhibition of binding
[2] = molecular target: D3 (Homo sapiens, UniProt P35462); assay: Affinity profile panel: D3; settings: inhibition of binding
D3, sequence (P35462 whole entry): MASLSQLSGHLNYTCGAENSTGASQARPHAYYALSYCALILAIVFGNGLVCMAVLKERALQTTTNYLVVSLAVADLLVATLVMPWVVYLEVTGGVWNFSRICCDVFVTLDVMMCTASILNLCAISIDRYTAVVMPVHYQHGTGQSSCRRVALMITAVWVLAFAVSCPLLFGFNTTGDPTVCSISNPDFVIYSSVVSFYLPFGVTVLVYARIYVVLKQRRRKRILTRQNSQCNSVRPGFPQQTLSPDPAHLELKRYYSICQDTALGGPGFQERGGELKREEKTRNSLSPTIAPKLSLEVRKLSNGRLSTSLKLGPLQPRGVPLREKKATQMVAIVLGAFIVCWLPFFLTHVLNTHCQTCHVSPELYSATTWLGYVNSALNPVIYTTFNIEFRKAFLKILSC

[3] = molecular target: 5-HT5A (Homo sapiens, UniProt P47898); assay: Affinity profile panel: 5-HT5A; settings: inhibition of binding
5-HT5A, sequence (P47898 whole entry, species assumed): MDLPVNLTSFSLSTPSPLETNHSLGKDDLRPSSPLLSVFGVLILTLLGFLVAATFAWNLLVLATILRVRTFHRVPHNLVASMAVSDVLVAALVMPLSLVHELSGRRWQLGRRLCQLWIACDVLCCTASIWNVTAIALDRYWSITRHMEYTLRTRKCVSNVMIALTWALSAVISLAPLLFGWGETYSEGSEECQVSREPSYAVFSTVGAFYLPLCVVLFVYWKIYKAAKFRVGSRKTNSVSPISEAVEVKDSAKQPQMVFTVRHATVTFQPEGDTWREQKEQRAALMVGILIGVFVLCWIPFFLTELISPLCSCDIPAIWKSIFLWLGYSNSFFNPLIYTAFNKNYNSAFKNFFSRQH

[4] = molecular target: T1, D2 receptor (Rattus norvegicus, UniProt P61169); assay: Sumanirole-induced hypothermia; format: in vivo; settings: rats, subcutaneously
T1 construct: from tissue; host or cells: live rats (whole animal)
T1 sequence (P61169 whole entry): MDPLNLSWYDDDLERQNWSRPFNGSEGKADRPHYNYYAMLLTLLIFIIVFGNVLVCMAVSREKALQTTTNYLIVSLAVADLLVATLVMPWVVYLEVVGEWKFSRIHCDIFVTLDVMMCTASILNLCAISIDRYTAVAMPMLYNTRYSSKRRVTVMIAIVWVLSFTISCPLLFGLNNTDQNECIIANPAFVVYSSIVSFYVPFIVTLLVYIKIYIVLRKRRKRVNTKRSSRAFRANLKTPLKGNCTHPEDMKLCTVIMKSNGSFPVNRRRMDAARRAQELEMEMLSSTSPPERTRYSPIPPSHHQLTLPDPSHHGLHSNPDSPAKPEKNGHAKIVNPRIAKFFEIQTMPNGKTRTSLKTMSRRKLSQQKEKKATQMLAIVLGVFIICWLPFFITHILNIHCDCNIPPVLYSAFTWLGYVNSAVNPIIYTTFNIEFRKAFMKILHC
From the text: These experiments test the ability of a compound of Formula I, ML321, to affect physiological or behavioral responses in rats that are mediated by D2 or D3 receptors. Sumanirole, an agonist of the D2 receptor, produces hypothermia in rats when administered subcutaneously. This response is known to be mediated by the D2 receptor and not the D3 receptor (Collins et al., Psychopharmacology (Berl). 2007, 193(2):159-70).
The sumanirole-induced hypothermia and pramipexole-induced yawning experiments show ML321 can act selectively to block the D2 receptor without blocking the D3 receptor when administered to living animals. Thus, the D2 selectivity identified using cellular assays can also be seen in living animals.

[5] = molecular target: T2, D2 DAR (Homo sapiens, UniProt P14416); assay: D2 Ca^2+ screen assay (calcium accumulation, HEK293 T-REx with Gqi5); format: cell-based
T2 construct: expressed in transfected cells; host or cells: HEK293 T-REx, Tet-inducible, with chimeric G-protein Gqi5
T2 sequence (P14416 whole entry): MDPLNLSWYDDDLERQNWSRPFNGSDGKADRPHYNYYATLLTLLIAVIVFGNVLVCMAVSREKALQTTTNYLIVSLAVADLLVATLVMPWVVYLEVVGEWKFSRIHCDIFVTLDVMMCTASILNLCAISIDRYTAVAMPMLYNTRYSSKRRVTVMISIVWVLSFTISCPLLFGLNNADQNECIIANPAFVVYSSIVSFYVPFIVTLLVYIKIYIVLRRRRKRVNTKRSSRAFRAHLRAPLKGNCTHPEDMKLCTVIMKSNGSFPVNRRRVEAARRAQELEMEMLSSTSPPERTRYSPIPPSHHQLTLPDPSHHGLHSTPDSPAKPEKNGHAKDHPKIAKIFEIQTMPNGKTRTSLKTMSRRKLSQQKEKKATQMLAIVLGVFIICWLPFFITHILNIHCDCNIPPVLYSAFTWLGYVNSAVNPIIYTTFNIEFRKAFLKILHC
Procedure: The resting concentration of calcium ions (Ca^2+) in the cells' cytoplasm is normally maintained in the range of 10-100 nM. To maintain this low concentration, Ca^2+ is actively pumped from the cytosol to the extracellular space and into the endoplasmic reticulum (ER), and sometimes into the mitochondria. Signaling occurs when the cell is stimulated to release Ca^2+ from intracellular stores. The most common signaling pathway that increases cytoplasmic calcium concentration is the phospholipase C (PLC) pathway. […] IP3 diffuses to the ER, binds to its receptor (IP3 receptor), which is a Ca^2+ channel and, thus, releases Ca^2+ from the ER to the cytosol. To measure this cytosolic Ca^2+ accumulation, we used the Screen Quest™ Fluo-8 Calcium Assay Kit (AAT Bioquest, Sunnyvale, Calif.). Acetoxymethyl (AM) esters bound to Fluo-8™ dye are non-polar molecules that easily cross live cell membranes transporting the dye inside the cell, and are then rapidly hydrolyzed by cellular esterases inside live cells. As Fluo-8™ is freed from AM esters, it binds to Ca^2+ and emits a fluorescent signal at 514 nm that escalates with increasing cytosolic Ca^2±. To measure this calcium flux signal, we used the Functional Drug Screening System (FDSS) (Hamamatsu, Japan), a high throughput screening device that allows optical detection of signal transmissions within living cells in a time-resolving fashion. […] Quest Fluo-8™ calcium reagent was freshly prepared prior to adding to the cells (lyophilized Fluo-8™ dye provided with the kit was re-suspended in 200 μL DMSO as a 500× stock and stored at −20° C.). 2 μL/well of Quest Fluo-8™ calcium dye diluted in HBSS +10 mM HEPES buffer (for every 10 mL buffer, 1 mL of 10× quencher provided in the kit and 20 μL of 500×DMSO stock dye were added) was added to cells with a Multi-Drop Combi (ThermoScientific) and incubated for 45-90 min in the dark at ambient temperature. Then, the plates were introduced into the FDSS where they were pinned with 23 nL of test compound or dopamine controls and were read by FDSS in non-stimulated mode for 180 sec for detection of agonists. […]

[6] = molecular target: DAT (Homo sapiens, UniProt Q01959); assay: Affinity profile panel: DAT; settings: inhibition of binding
DAT, sequence (Q01959 whole entry, species assumed): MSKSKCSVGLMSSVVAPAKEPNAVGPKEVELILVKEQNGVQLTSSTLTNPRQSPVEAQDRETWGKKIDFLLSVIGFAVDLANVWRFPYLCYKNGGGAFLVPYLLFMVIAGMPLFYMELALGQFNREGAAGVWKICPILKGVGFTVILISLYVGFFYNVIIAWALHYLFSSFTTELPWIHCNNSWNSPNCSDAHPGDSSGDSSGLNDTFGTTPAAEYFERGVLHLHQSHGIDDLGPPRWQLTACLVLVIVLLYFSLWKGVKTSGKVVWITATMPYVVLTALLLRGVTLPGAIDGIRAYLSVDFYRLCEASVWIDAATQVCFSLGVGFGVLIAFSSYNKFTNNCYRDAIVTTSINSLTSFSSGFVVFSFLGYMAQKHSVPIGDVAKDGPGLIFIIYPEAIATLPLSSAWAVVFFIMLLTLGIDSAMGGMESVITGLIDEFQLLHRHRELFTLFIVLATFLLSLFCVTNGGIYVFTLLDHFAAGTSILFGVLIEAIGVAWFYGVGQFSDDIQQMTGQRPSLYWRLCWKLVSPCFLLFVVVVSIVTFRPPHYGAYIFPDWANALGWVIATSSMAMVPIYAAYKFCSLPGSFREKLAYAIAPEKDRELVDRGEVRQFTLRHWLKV
From the text: Antipsychotic drugs (depending on the specific drug) typically interact with a range of serotonergic, adrenergic, histaminergic, and muscarinic receptors.

[7] = molecular target: M4 (Homo sapiens, UniProt P08173); assay: Affinity profile panel: M4; settings: inhibition of binding
M4, sequence (P08173 whole entry): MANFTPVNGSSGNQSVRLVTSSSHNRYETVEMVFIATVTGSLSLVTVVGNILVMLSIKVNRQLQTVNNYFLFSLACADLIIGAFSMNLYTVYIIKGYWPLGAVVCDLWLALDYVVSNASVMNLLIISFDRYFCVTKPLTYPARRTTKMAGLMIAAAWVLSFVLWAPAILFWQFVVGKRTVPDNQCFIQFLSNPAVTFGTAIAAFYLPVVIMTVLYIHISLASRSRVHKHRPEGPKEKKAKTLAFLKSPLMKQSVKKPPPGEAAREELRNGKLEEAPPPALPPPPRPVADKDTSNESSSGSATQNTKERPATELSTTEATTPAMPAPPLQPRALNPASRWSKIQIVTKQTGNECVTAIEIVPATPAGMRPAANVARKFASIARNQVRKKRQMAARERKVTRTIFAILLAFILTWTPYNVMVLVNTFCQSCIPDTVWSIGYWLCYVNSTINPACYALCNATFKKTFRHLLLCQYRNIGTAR

KOR, sequence (P41145 whole entry): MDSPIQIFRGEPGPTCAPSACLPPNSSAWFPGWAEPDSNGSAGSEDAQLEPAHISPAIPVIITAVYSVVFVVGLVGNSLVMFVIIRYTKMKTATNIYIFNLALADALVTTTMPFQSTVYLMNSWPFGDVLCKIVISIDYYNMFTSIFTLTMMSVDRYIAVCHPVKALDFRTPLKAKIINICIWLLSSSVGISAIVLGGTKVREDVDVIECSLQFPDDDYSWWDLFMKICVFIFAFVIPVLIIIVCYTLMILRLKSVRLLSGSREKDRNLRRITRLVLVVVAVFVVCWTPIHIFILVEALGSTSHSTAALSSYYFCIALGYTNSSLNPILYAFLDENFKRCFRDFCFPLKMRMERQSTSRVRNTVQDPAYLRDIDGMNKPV

## CN1C(=O)c2ccccc2[S@+]([O-])c2ccc(C(=O)NCCc3cccs3)cc21 [Compound 55, 10-Methyl-11-oxo-N-(2-(thiophen-2-yl)ethyl)-10,11-dihydrodibenzo[b,f][1,4]thiazepine-8-carboxamide 5-(S)-oxide]
[1]
  Inhibition (%) KOR: 18.2%
[2]
  Inhibition (%) D3: 59.1%
[3]
  Inhibition (%) 5-HT5A: 9.5%
[4]; 10 mg/kg
  Block of sumanirole-induced hypothermia response: completely blocked
[4]; 3.2 and 10 mg/kg
  Block of sumanirole-induced hypothermia response: significantly and dose-dependently block the sumanirole-induced hypothermia response
[5]; dopamine D2 calcium release assay of Example 1, read-out: Ca^2+ AC50
  AC50: < 1000 nM
[5]; dose response curve, read-out: D2 Ca^2+ assay AC50
  AC50: 70 nM
[6]
  Inhibition (%) DAT: −5.3%
[7]
  Inhibition (%) M4: 2.4%
